Measured values reported in ChEMBL document CHEMBL4680214, “Fluorinated derivatives of 2-phenyl-3-hydroxy-4(1H)-quinolinone as tubulin polymerization inhibitors” (Eur J Med Chem, 2020).
Calls of active or inactive are those of the source. The calls are words filed in the database; no cut-off is given here.

Tests used:
[1] = tested on: CCRF-CEM; assay: Cell cycle arrest in human CCRF-CEM cells assessed as accumulation at G2/M phase at 5 times IC50 measured after 24 hrs by propidium iodide staining based flow cytometry (reference value: 22.6%); format: functional
[2] = tested on: HCT-116; assay: Cell cycle arrest in human HCT-116 cells assessed as accumulation at G0/G1 phase at IC50 measured after 24 hrs by propidium iodide staining based flow cytometry (reference value: 35.3%); format: functional
[3] = tested on: CCRF-CEM; assay: Cytotoxicity against human daunorubicine-resistant CCRF-CEM cells incubated for 72 hrs by MTS assay; format: functional, cell-based
[4] = tested on: CCRF-CEM; assay: Cell cycle arrest in human CCRF-CEM cells assessed as accumulation at S phase at 5 times IC50 measured after 24 hrs by propidium iodide staining based flow cytometry (reference value: 42.2%); format: functional
[5] = tested on: K562; assay: Cytotoxicity against human K562 cells incubated for 72 hrs by MTS assay; format: functional, cell-based; conditions: K562, 72 h
[6] = tested on: HCT-116; assay: Cell cycle arrest in human HCT-116 cells assessed as phosphorylation of histone H3 at Ser10 at IC50 measured after 24 hrs by propidium iodide staining based flow cytometry (reference value: 3.4%); format: functional
[7] = tested on: HCT-116; assay: Cell cycle arrest in human HCT-116 cells assessed as phosphorylation of histone H3 at Ser10 at 5 times IC50 measured after 24 hrs by propidium iodide staining based flow cytometry (reference value: 3.4%); format: functional
[8] = tested on: CCRF-CEM; assay: Cell cycle arrest in human CCRF-CEM cells assessed as polyploid cell population at 2 times IC50 measured after 12 hrs by propidium iodide staining based flow cytometry (reference value: 11.3%); format: functional
[9] = organism: Sus scrofa; assay: Inhibition of porcine brain tubulin polymerization assessed as Vmax of polymerization at 10 umol/L measured at 60 secs interval for 30 mins by turbidometric method; conditions: dose 10.0 µmol/L
[10] = tested on: HCT-116; assay: Cell cycle arrest in human HCT-116 cells assessed as accumulation at S phase at 5 times IC50 measured after 24 hrs by propidium iodide staining based flow cytometry (reference value: 37.7%); format: functional
[11] = tested on: CCRF-CEM; assay: Cell cycle arrest in human CCRF-CEM cells assessed as accumulation at G0/G1 phase at 5 times IC50 measured after 24 hrs by propidium iodide staining based flow cytometry (reference value: 35.2%); format: functional
[12] = tested on: CCRF-CEM; assay: Cell cycle arrest in human CCRF-CEM cells assessed as accumulation at G0/G1 phase at IC50 measured after 24 hrs by propidium iodide staining based flow cytometry (reference value: 35.2%); format: functional
[13] = tested on: CCRF-CEM; assay: Cell cycle arrest in human CCRF-CEM cells assessed as phosphorylation of histone H3 at Ser10 at IC50 measured after 24 hrs by propidium iodide staining based flow cytometry (reference value: 2.0%); format: functional
[14] = tested on: K562; assay: Cytotoxicity against human paclitaxel-resistant K562 cells incubated for 72 hrs by MTS assay; format: functional, cell-based; conditions: K562, 72 h
[15] = tested on: CCRF-CEM; assay: Cell cycle arrest in human CCRF-CEM cells assessed as polyploid cell population at 2 times IC50 measured after 36 hrs by propidium iodide staining based flow cytometry (reference value: 11.3%); format: functional
[16] = tested on: HCT-116; assay: Cell cycle arrest in human HCT-116 cells assessed as accumulation at G2/M phase at 5 times IC50 measured after 24 hrs by propidium iodide staining based flow cytometry (reference value: 27.0%); format: functional
[17] = tested on: HCT-116; assay: Cell cycle arrest in human HCT-116 cells assessed as BrU incorporation at 5 times IC50 measured after 24 hrs by propidium iodide/immunostaining based flow cytometry (reference value: 54.0%); format: functional
[18] = tested on: CCRF-CEM; assay: Cell cycle arrest in human CCRF-CEM cells assessed as BrU incorporation at IC50 measured after 24 hrs by propidium iodide/immunostaining based flow cytometry (reference value: 52.2%); format: functional
[19] = tested on: CCRF-CEM; assay: Cell cycle arrest in human CCRF-CEM cells assessed as accumulation at G2/M phase at IC50 measured after 24 hrs by propidium iodide staining based flow cytometry (reference value: 22.6%); format: functional
[20] = tested on: CCRF-CEM; assay: Cell cycle arrest in human CCRF-CEM cells assessed as polyploid cell population at 2 times IC50 measured after 24 hrs by propidium iodide staining based flow cytometry (reference value: 11.3%); format: functional
[21] = tested on: HCT-116; assay: Cell cycle arrest in human HCT-116 cells assessed as BrdU incorporation at IC50 measured after 24 hrs by propidium iodide/immunostaining based flow cytometry (reference value: 48.6%); format: functional
[22] = tested on: HCT-116; assay: Cell cycle arrest in human HCT-116 cells assessed as accumulation at sub-G1 phase at IC50 measured after 24 hrs by propidium iodide staining based flow cytometry (reference value: 1.6%); format: functional
[23] = tested on: HCT-116; assay: Cytotoxicity against human HCT-116 cells incubated for 72 hrs by MTS assay; format: functional, cell-based; conditions: HCT-116, 72 h
[24] = organism: Sus scrofa; assay: Inhibition of porcine brain tubulin polymerization at 10 umol/L measured at 60 secs interval for 30 mins by turbidometric method; conditions: dose 10.0 µmol/L
[25] = tested on: BJ; assay: Cytotoxicity against human BJ cells incubated for 72 hrs by MTS assay; format: cell-based
[26] = tested on: CCRF-CEM; assay: Cell cycle arrest in human CCRF-CEM cells assessed as increase in phosphorylation of histone H3 at Ser10 at 2 times IC50 measured after 6 to 12 hrs by Western blot analysis; format: functional, cell-based; conditions: time 6-12 hrs
[27] = tested on: CCRF-CEM; assay: Cell cycle arrest in human CCRF-CEM cells assessed as accumulation at sub-G1 phase at 5 times IC50 measured after 24 hrs by propidium iodide staining based flow cytometry (reference value: 2%); format: functional
[28] = tested on: HCT-116; assay: Cell cycle arrest in human HCT-116 cells assessed as accumulation at sub-G1 phase at 5 times IC50 measured after 24 hrs by propidium iodide staining based flow cytometry (reference value: 1.6%); format: functional
[29] = tested on: CCRF-CEM; assay: Cell cycle arrest in human CCRF-CEM cells assessed as phosphorylation of histone H3 at Ser10 at 5 times IC50 measured after 24 hrs by propidium iodide staining based flow cytometry (reference value: 2.0%); format: functional
[30] = tested on: CCRF-CEM; assay: Cell cycle arrest in human CCRF-CEM cells assessed as increase in accumulation at G2/M phase at 2 times IC50 measured after 6 to 12 hrs by propidium iodide staining based flow cytometry; format: functional; conditions: time 6-12 hrs
[31] = tested on: HCT-116; assay: Cytotoxicity against p53-deficient human HCT-116 cells incubated for 72 hrs by MTS assay; format: functional, cell-based; conditions: HCT-116, 72 h
[32] = tested on: CCRF-CEM; assay: Cell cycle arrest in human CCRF-CEM cells assessed as increase in Bax expression at 2 times IC50 measured after 24 hrs by Western blot analysis; format: functional, cell-based
[33] = tested on: A549; assay: Cytotoxicity against human A549 cells incubated for 72 hrs by MTS assay; format: functional, cell-based; conditions: A549, 72 h
[34] = tested on: CCRF-CEM; assay: Cytotoxicity against human CCRF-CEM cells incubated for 72 hrs by MTS assay; format: functional, cell-based
[35] = tested on: HCT-116; assay: Cell cycle arrest in human HCT-116 cells assessed as accumulation at S phase at IC50 measured after 24 hrs by propidium iodide staining based flow cytometry (reference value: 37.7%); format: functional
[36] = tested on: CCRF-CEM; assay: Cell cycle arrest in human CCRF-CEM cells assessed as BrU incorporation at 5 times IC50 measured after 24 hrs by propidium iodide/immunostaining based flow cytometry (reference value: 52.2%); format: functional
[37] = tested on: CCRF-CEM; assay: Cell cycle arrest in human CCRF-CEM cells assessed as accumulation at S phase at IC50 measured after 24 hrs by propidium iodide staining based flow cytometry (reference value: 42.2%); format: functional
[38] = tested on: HCT-116; assay: Cell cycle arrest in human HCT-116 cells assessed as accumulation at G0/G1 phase at 5 times IC50 measured after 24 hrs by propidium iodide staining based flow cytometry (reference value: 35.3%); format: functional

For `O=c1c(O)c(-c2ccccc2)[nH]c2cc(F)c(Sc3ccccc3)cc12`, the Activity [1] was 20.2%, the Activity [2] was 33.3% and the IC50 [3] was 3.7 µM. For the same molecule, the Activity [4] was 21.6%, the IC50 [5] was 1.3 µM and the Activity [6] was 6.2%. For the same molecule, the Activity [7] was 15.5%, the Activity [8] was 12.4% and the Vmax (milli optical density/minute) [9] was 8.3. The Activity [10] was 33.2%, the Activity [11] was 58.2% and the Activity [12] was 1.8%. For the same molecule, the Activity [13] was 9.4%, the IC50 [14] was 2.9 µM and the Activity [15] was 20.8%. The Activity [16] was 64.1%, the Activity [17] was 63.9% and the Activity [18] was 67.4%. For the same molecule, the Activity [19] was 41.5%, the Activity [20] was 16.6% and the Activity [21] was 42.1%. The Activity [22] was 3.4%, the IC50 [23] was 1.3 µM and the inhibition [24] was “Active”. The IC50 [25] was > 50 µM, the Activity [26] was “Active” and the Activity [27] was 29.7%. For the same molecule, the Activity [28] was 8.2%, the Activity [29] was 4.9% and the Activity [30] was “Active”. For the same molecule, the IC50 [31] was 4 µM, the Activity [32] was “Active” and the IC50 [33] was 3.6 µM. For the same molecule, the IC50 [34] was 3.3 µM, the Activity [35] was 33.5% and the Activity [36] was 11.4%. It also gave an Activity [37] of 56.7% and an Activity [38] of 2.7%.
